According to patent US20060287313A1, “Isoquinoline compounds and methods of use thereof” (Inotek Pharmaceuticals Corporation, priority 2005, published 2006):

How the values were obtained:
[1] = target: T1, purified PARS enzyme (Homo sapiens, UniProt P09874); assay: Purified PARS enzyme assay (Trevigen PARS inhibition assay kit); type: biochemical; conditions: Table 1, inhibitory effect on PARS; assay not given
T1 construct: purchased Trevigen, Gaithersburg, Md
Method: The assay is performed in 96 well ELISA plates according to instructions provided with a commercially available PARS inhibition assay kit (for example, from Trevigen, Gaithersburg, Md.).
The assay was performed in 96 well ELISA plates according to instructions provided with a commercially available PARS inhibition assay kit (Trevigen, Gaithersburg, Md.). Briefly, wells were coated with 1 mg/ml histone (50 μl/well) at 4 C overnight. Plates were then washed four times with PBS and then blocked by adding 50 μl Strep-Diluent (supplied with the kit). After incubation (1 h, 25° C.), the plates were washed four times with PBS. […] The reaction was allowed to proceed for 30 min at room temperature. After 4 washes in PBS, incorporated biotin was detected by peroxidase-conjugated streptavidin (1:500 dilution) and TACS Sapphire substrate.

[2] = target: T2, PARS (Mus musculus, UniProt P11103); assay: Cell protection assay: PARS activity in peroxynitrite-treated raw murine macrophages; type: cell-based; conditions: peroxynitrite 750 μM, 3H-NAD incorporation, calculated from a dose-response curve
T2 construct: endogenous in cells; host or cells: RAW murine macrophages
T2 sequence (P11103 whole entry): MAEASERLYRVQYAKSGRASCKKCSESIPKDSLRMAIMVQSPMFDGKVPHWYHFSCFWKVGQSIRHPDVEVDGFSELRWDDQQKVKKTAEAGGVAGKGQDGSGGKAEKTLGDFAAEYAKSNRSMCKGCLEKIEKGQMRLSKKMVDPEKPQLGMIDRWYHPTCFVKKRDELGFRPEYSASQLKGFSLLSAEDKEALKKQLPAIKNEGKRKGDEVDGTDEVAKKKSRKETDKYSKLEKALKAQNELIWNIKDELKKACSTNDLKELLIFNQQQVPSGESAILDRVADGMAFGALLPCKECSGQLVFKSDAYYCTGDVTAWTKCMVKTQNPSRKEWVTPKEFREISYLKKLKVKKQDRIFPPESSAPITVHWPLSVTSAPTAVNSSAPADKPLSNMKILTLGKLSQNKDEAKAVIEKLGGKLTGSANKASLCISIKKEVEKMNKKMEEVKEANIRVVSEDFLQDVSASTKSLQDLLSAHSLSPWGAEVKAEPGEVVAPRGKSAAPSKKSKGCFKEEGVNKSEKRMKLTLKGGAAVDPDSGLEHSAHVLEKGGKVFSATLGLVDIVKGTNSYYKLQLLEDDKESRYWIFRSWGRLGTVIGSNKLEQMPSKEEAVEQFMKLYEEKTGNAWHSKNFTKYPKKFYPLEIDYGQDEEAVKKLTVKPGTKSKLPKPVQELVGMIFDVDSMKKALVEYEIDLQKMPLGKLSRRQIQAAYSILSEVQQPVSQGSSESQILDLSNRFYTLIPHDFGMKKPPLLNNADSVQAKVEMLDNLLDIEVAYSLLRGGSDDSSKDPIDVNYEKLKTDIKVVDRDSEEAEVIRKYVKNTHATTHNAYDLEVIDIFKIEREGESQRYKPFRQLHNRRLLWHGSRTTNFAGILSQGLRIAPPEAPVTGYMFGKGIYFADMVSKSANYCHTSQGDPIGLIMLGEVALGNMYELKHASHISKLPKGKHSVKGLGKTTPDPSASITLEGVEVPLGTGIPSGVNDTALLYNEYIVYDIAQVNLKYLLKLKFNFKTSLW
Method: The media was removed and replaced with 0.5 mL HEPES (pH 7.5) containing 0.01% digitonin and ^3H-NAD (0.5 μCi/mL, final concentration of NAD+ in buffer is […]) and the resultant mixture was allowed to stand for 20 minutes. […] The tubes were maintained at 4° C. for four hours, centrifuged at 1800 g for 10 minutes, and the supernatant removed. […] The contents of the tubes were then added to ScintiSafe Plus scintillation liquid (6.5 ml, Fisher Scientific) and radioactivity was measured using a liquid scintillation counter (Wallac, Gaithersburg, Md.).

T1 sequence (P09874 whole entry): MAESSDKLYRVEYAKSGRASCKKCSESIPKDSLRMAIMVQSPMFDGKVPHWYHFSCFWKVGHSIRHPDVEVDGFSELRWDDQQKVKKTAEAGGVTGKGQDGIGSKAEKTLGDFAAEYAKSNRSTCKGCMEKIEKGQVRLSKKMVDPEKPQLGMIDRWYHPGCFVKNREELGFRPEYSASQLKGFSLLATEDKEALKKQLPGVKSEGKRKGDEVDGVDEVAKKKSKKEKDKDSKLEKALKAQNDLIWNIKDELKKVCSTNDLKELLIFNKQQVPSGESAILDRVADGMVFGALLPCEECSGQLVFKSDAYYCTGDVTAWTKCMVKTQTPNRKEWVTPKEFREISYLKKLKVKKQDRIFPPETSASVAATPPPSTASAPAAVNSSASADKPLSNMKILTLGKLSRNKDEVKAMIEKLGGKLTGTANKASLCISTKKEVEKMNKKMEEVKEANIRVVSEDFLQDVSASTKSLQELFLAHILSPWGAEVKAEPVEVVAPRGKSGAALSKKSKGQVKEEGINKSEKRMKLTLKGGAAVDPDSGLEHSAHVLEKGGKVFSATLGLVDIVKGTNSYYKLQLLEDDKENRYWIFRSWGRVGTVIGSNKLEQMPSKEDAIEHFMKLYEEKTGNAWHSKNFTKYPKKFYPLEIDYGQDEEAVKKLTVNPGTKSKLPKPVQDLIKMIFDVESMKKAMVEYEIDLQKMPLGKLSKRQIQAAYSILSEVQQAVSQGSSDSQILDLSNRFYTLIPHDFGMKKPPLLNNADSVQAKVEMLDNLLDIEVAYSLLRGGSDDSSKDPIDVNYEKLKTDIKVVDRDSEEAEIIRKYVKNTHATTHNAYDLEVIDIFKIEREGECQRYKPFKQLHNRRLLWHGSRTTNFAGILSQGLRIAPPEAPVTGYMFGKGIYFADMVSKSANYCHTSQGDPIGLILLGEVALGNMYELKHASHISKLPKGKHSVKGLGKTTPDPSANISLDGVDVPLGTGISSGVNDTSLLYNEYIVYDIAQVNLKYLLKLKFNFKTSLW

| IC50 [1] | EC50 [2] | SMILES |
| --- | --- | --- |
| 0.1 µM |  | CCCNC(=O)Nc1ccc2c(c1)Cc1c-2[nH]c(=O)c2ccccc12 [Compound 27] |
| 0.8 µM |  | CN(C)CC(=O)Nc1ccc2c(c1)-c1[nH]c(=O)c3ccccc3c1C2 [Compound 56a, N-[5,6-Dihydro-5-oxo-indeno[1,2-c]isoquinolin-8-yl]-N,N-dimethylacetamide] |
|  | 0.28 µM | CN(C)CCC(=O)Nc1cccc2c1Cc1c-2[nH]c(=O)c2ccccc12 [Compound 3b] |
|  | 0.2 µM | CN(C)CC(=O)Nc1cccc2c1Cc1c-2[nH]c(=O)c2ccccc12 [Compound 3a] |
| 0.08 µM |  | O=C(CN1CC=C(c2ccccc2)CC1)Nc1ccc2c(c1)Cc1c-2[nH]c(=O)c2ccccc12 [Compound 12a, N-(5-Oxo-5,11-dihydro-6H-indeno[1,2-c]isoquinolin-9-yl)-2-(4-phenyl-3,6-dihydro-2H-pyridin-1-yl)-acetamide] |
